Results: patent US20250019382A1, “NOVEL INHIBITORS OF CYCLIN-DEPENDENT KINASES” (Origenis Gmbh, priority 2021, published 2025)

Target: T1, CDK9/CyclinT1 (Homo sapiens, UniProt P50750)
T1 construct: purchased ProQinase/Reaction Biology, USA #0371-0345-1
Assay: CDK9/T1 ADPGlo kinase assay
Assay type: biochemical
Settings: CDK9/CyclinT1 6 nM, ATP 10 microM, PDKtide 40 microM, 120 min RT
Description: The testing compound was evaluated in 12 concentrations in a 1:3 dilution series, starting from 5microM as the highest concentration.
In a white 384 microplate (Greiner bio-one, Austria #784904,) with 2 microL of 3-fold concentrated CDK9/CyclinT1 (ProQinase/Reaction Biology, USA #0371-0345-1, LOT.: 012), final concentration (f.c.) 6 nM, in 1×kinase buffer, 2 microL of compound (3× fold concentrated in f.c. 1.66% DMSO/H2O) was added and incubated at Room Temperature (RT) for 10 min. Then 2 microL of Substrate/ATP-Mix (3×PDKtide f.c. 40 microM, SignalChem Biotech, Canada via Biozol, Eching, Germany #P10-58, LOT.: L2230-7 and 3×UltraPure ATP f.c. 10 microM (ADP Glo Kinase assay, Promega GmbH, Germany #V9102)) were added, mixed and incubated for 120 min at RT.
After incubation time, 5 microL of ADP Glo reagent (ready to use, ADP Glo Kinase assay, Promega GmbH, Germany #V9102) were added, mixed and incubated for 40 min at RT.
In the last step, 10 microL of ADP Glo Detection reagent (ready to use, ADP Glo Kinase assay, Promega GmbH, Germany #V9102) were added, mixed and incubated for 30 min at RT.
GloMax Discover GM3000 Reader (Promega GmbH, Germany 9700000249) was used for the readout.
The inhibitor concentration was plotted against the luminescence to determine the IC50 using XLFit 5.5 (IDBS, Guildford) to fit to a sigmoidal dose response curve with a variable slope.

T1 sequence (P50750 whole entry): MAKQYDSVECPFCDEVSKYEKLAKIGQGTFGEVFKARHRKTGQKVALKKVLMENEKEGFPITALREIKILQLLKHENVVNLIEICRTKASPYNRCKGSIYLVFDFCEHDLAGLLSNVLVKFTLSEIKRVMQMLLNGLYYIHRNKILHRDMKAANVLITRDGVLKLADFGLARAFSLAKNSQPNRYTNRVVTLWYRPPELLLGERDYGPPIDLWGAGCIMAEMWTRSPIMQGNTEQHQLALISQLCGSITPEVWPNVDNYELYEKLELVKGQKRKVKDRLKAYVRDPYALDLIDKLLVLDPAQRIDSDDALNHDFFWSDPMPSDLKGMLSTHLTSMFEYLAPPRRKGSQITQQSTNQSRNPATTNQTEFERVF
T1 sequence (O60563 whole entry partner): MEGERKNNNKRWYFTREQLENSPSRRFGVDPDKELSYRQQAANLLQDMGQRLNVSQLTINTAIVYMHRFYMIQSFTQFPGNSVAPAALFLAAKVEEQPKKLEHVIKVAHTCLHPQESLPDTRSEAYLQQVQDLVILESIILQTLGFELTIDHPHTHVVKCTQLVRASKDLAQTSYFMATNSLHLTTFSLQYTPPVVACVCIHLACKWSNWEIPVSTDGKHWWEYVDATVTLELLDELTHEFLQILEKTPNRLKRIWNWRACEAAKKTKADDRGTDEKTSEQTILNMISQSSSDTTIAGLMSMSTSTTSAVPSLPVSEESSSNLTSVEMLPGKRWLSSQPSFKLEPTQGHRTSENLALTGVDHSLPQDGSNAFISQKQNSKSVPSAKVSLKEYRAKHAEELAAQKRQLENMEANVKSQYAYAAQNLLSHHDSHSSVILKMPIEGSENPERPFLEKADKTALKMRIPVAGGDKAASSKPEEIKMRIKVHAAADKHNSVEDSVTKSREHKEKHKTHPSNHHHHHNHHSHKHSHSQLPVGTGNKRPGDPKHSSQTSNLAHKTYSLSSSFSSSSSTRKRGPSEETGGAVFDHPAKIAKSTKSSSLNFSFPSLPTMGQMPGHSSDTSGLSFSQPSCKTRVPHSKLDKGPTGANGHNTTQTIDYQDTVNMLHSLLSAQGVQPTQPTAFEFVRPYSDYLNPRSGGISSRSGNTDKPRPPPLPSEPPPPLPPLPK

SMILES | IC50 [nM]
CCOc1cc(Nc2nc(-c3c(F)cccc3Cl)nc3ccnn23)ccc1C1CCN(C)CC1 [Example #17, 2-(2-chloro-6-fluorophenyl)-N-(3-ethoxy-4-(1-methylpiperidin-4-yl)phenyl)pyrazolo[1,5-a][1,3,5]triazin-4-amine] | < 1000
CCOc1cc(Nc2nc(-c3c(F)cccc3Cl)nc3ccnn23)ccc1N1CCN(C)CC1 [Example #32, 2-(2-chloro-6-fluorophenyl)-N-(3-ethoxy-4-(4-methylpiperazin-1-yl)phenyl)pyrazolo[1,5-a][1,3,5]triazin-4-amine] | < 1000
CC(C)(C)N1CCN(c2ccc(Nc3nc(-c4ccccc4F)nc4ccnn34)cc2)CC1 [Example #54, N-(4-(4-(tert-butyl)piperazin-1-yl)phenyl)-2-(2-fluorophenyl)pyrazolo[1,5-a][1,3,5]triazin-4-amine] | < 1000
O=C(NCC(F)(F)F)c1ccc(Nc2nc(-c3c(F)cccc3F)nc3ccnn23)cc1 [Example #26, 4-((2-(2,6-difluorophenyl)pyrazolo[1,5-a][1,3,5]triazin-4-yl)amino)-N-(2,2,2-trifluoroethyl)benzamide] | < 1000
CC(C)(C)NC(=O)c1ccc(Nc2nc(-c3c(F)cccc3Cl)nc3ccnn23)cc1 [Example #23, N-(tert-butyl)-4-((2-(2-chloro-6-fluorophenyl)pyrazolo[1,5-a][1,3,5]triazin-4-yl)amino)benzamide] | < 1000
CC(C)(C)N1CCN(c2ccc(Nc3nc(-c4c(F)cccc4F)nc4ccnn34)cc2)CC1 [Example #45, N-(4-(4-(tert-butyl)piperazin-1-yl)phenyl)-2-(2,6-difluorophenyl)pyrazolo[1,5-a][1,3,5]triazin-4-amine] | < 200
CCOc1cc(Nc2nc(-c3c(Cl)cccc3Cl)nc3ccnn23)ccc1N1CCN(C)CC1 [Example #12, 2-(2,6-dichlorophenyl)-N-(3-ethoxy-4-(4-methylpiperazin-1-yl)phenyl)pyrazolo[1,5-a][1,3,5]triazin-4-amine] | < 1000
Fc1cccc(F)c1-c1nc(Nc2cnn(C3CCN(C4COC4)CC3)c2)n2nccc2n1 [Example #84, 2-(2,6-difluorophenyl)-N-(1-(1-(oxetan-3-yl)piperidin-4-yl)-1H-pyrazol-4-yl)pyrazolo[1,5-a][1,3,5]triazin-4-amine] | < 1000
Fc1cccc(F)c1-c1nc(Nc2cnn(C3CCN(C4CCOCC4)CC3)c2)n2ncc(Br)c2n1 [Example #94, 8-bromo-2-(2,6-difluorophenyl)-N-(1-(1-(tetrahydro-2H-pyran-4-yl)piperidin-4-yl)-1H-pyrazol-4-yl)pyrazolo[1,5-a][1,3,5]triazin-4-amine] | < 200
Fc1cccc(F)c1-c1nc(Nc2cnn(C3CCN(CC4CC4)CC3)c2)n2nccc2n1 [Example #80, N-(1-(1-(cyclopropylmethyl)piperidin-4-yl)-1H-pyrazol-4-yl)-2-(2,6-difluorophenyl)pyrazolo[1,5-a][1,3,5]triazin-4-amine] | < 200
CCOc1cc(Nc2nc(-c3c(F)cccc3F)nc3ccnn23)ccc1C1CCN(C)CC1 [Example #20, 2-(2,6-difluorophenyl)-N-(3-ethoxy-4-(1-methylpiperidin-4-yl)phenyl)pyrazolo[1,5-a][1,3,5]triazin-4-amine] | < 1000
Fc1cccc(F)c1-c1nc(Nc2cnn(C3CCN(C4CCOCC4)CC3)c2)n2nccc2n1 [Example #67, 2-(2,6-difluorophenyl)-N-(1-(1-(tetrahydro-2H-pyran-4-yl)piperidin-4-yl)-1H-pyrazol-4-yl)pyrazolo[1,5-a][1,3,5]triazin-4-amine] | < 200
N#Cc1cc(Nc2nc(-c3c(F)cccc3F)nc3ccnn23)ccc1N1CCOCC1 [Example #42, 5-((2-(2,6-difluorophenyl)pyrazolo[1,5-a][1,3,5]triazin-4-yl)amino)-2-morpholinobenzonitrile] | < 1000
COc1cc(Nc2nc(-c3c(F)cccc3F)nc3ccnn23)ccc1N1CCC(N2CCN(C)CC2)CC1 [Example #62, 2-(2,6-difluorophenyl)-N-(3-methoxy-4-(4-(4-methylpiperazin-1-yl)piperidin-1-yl)phenyl)pyrazolo[1,5-a][1,3,5]triazin-4-amine] | < 1000
COc1ccc(Nc2nc(-c3c(F)cccc3F)nc3ccnn23)cc1OC [Example #65, 2-(2,6-difluorophenyl)-N-(3,4-dimethoxyphenyl)pyrazolo[1,5-a][1,3,5]triazin-4-amine] | < 1000
CCOc1cc(Nc2nc(-c3c(F)cccc3Cl)nc3ccnn23)ccc1C1=CCN(C2CC2)CC1 [Example #34, 2-(2-chloro-6-fluorophenyl)-N-(4-(1-cyclopropyl-1,2,3,6-tetrahydropyridin-4-yl)-3-ethoxyphenyl)pyrazolo[1,5-a][1,3,5]triazin-4-amine] | < 1000
Fc1cccc(F)c1-c1nc(Nc2cnn([C@H]3CC[C@H](N4CCOCC4)CC3)c2)n2nccc2n1 [Example #68, 2-(2,6-difluorophenyl)-N-(1-((1r,4r)-4-morpholinocyclohexyl)-1H-pyrazol-4-yl)pyrazolo[1,5-a][1,3,5]triazin-4-amine] | < 200
Fc1cccc(F)c1-c1nc(Nc2cnn(C3CCNCC3)c2)n2nccc2n1 [Example #74, 2-(2,6-difluorophenyl)-N-(1-(piperidin-4-yl)-1H-pyrazol-4-yl)pyrazolo[1,5-a][1,3,5]triazin-4-amine] | < 200

Results, then the compound that gave them:

IC50 [nM] | SMILES
< 200 | Clc1cccc(Cl)c1-c1nc(Nc2cnn(C3CCN(C4CCOCC4)CC3)c2)n2ncc(Cl)c2n1 [Example #102, 8-chloro-2-(2,6-dichlorophenyl)-N-(1-(1-(tetrahydro-2H-pyran-4-yl)piperidin-4-yl)-1H-pyrazol-4-yl)pyrazolo[1,5-a][1,3,5]triazin-4-amine]
< 200 | CN(C)[C@H]1C[C@H](Nc2nc(-c3c(F)cccc3F)nc3c(Cl)cnn23)C1 [Example #130, (1r,3r)-N1-(8-chloro-2-(2,6-difluorophenyl)pyrazolo[1,5-a][1,3,5]triazin-4-yl)-N3,N3-dimethylcyclobutane-1,3-diamine]
< 20 | CN(CCCF)[C@H]1CC[C@H](Nc2nc(-c3c(F)cccc3F)nc3c(Cl)cnn23)CC1 [Example #135, (1r,4r)-N1-(8-chloro-2-(2,6-difluorophenyl)pyrazolo[1,5-a][1,3,5]triazin-4-yl)-N4-(3-fluoropropyl)-N4-methylcyclohexane-1,4-diamine]
< 200 | CN1CCC(N2CCC(n3cc(Nc4nc(-c5c(F)cccc5F)nc5ccnn45)cn3)CC2)CC1 [Example #66, 2-(2,6-difluorophenyl)-N-(1-(1′-methyl-[1,4′-bipiperidin]-4-yl)-1H-pyrazol-4-yl)pyrazolo[1,5-a][1,3,5]triazin-4-amine]
< 20 | N[C@H]1CC[C@H](Nc2nc(-c3c(F)cccc3F)nc3c(C(F)(F)F)cnn23)CC1 [Example #118, (1r,4r)-N1-(2-(2,6-difluorophenyl)-8-(trifluoromethyl)pyrazolo[1,5-a][1,3,5]triazin-4-yl)cyclohexane-1,4-diamine]
< 200 | Fc1cccc(Cl)c1-c1nc(N[C@H]2CC[C@H](N3CCOCC3)CC2)n2nccc2n1 [Example #76, 2-(2-chloro-6-fluorophenyl)-N-((1r,4r)-4-morpholinocyclohexyl)pyrazolo[1,5-a][1,3,5]triazin-4-amine]
< 20 | NC1CC(Nc2nc(-c3c(F)cccc3F)nc3c(Cl)cnn23)C1 (stereo not drawn) [Example #129, (1r,3r)-N1-(8-chloro-2-(2,6-difluorophenyl)pyrazolo[1,5-a][1,3,5]triazin-4-yl)cyclobutane-1,3-diamine]
< 20 | Fc1cccc(Cl)c1-c1nc(Nc2cnn(C3CCN(C4CCOCC4)CC3)c2)n2ncc(Cl)c2n1 [Example #101, 8-chloro-2-(2-chloro-6-fluorophenyl)-N-(1-(1-(tetrahydro-2H-pyran-4-yl)piperidin-4-yl)-1H-pyrazol-4-yl)pyrazolo[1,5-a][1,3,5]triazin-4-amine]
< 20 | Fc1cccc(F)c1-c1nc(Nc2cnn(C3CCN(CC4CC4)CC3)c2)n2ncc(Cl)c2n1 [Example #100, 8-chloro-N-(1-(1-(cyclopropylmethyl)piperidin-4-yl)-1H-pyrazol-4-yl)-2-(2,6-difluorophenyl)pyrazolo[1,5-a][1,3,5]triazin-4-amine]
< 20 | CCN(CCO)CCCC(C)Nc1nc(-c2c(F)cccc2F)nc2c(Cl)cnn12 (stereo not drawn) [Example #107, 2-((4-((8-chloro-2-(2,6-difluorophenyl)pyrazolo[1,5-a][1,3,5]triazin-4-yl)amino)pentyl)(ethyl)amino)ethan-1-ol]
< 20 | Fc1cccc(F)c1-c1nc(NCc2cccnc2)n2ncc(Cl)c2n1 [Example #146, 8-chloro-2-(2,6-difluorophenyl)-N-(pyridin-3-ylmethyl)pyrazolo[1,5-a][1,3,5]triazin-4-amine]
< 20 | CN(CCO)C1CCC(Nc2nc(-c3c(F)cccc3F)nc3c(Cl)cnn23)CC1 (stereo not drawn) [Example #133, 2-(((1r,4r)-4-((8-chloro-2-(2,6-difluorophenyl)pyrazolo[1,5-a][1,3,5]triazin-4-yl)amino)cyclohexyl)(methyl)amino)ethan-1-ol]
